Test system: mouse breast cancer 4T1 cells xenografts
Experiment: In vivo validation of Targeted Osmotic Lysis (TOL) in a breast cancer mouse model
Set-up: species or system BALBc mice
Conditions: TOL: 7 mg/kg digoxin s.c. five times at 1 hr intervals plus pulsed magnetic fields from toroid device for 30 min, day 0 and day 1; versus control groups; FIG. 9
Experimental: FIG. 9 depicts in vivo validation of the therapeutic efficacy of pulsed magnetic fields inducing osmotic lysis in a breast cancer mouse model. Four groups of female, immune competent BALBc mice (n=8) with xenografts (0.7-1.2 cm diameter lower back) were established after injection of 500K highly malignant mouse breast cancer 4T1 cells in 7 mg/kg digoxin or saline (s.c. back of neck) five times at 1 hr intervals. This protocol establishes steady-state pharmacokinetics in even poorly vascularized tissues. The mice were exposed to the pulsed magnetic fields generated by a toroid device, for 30 min starting 15 min after the last injection. This treatment was administered on day 0 (first day of treatment), and on day 1. Mice were monitored for tumor growth and were sacrificed when they met the NIH criteria for humane endpoint euthanasia.

C[C@H]1O[C@@H](O[C@H]2[C@@H](O)C[C@H](O[C@H]3[C@@H](O)C[C@H](O[C@H]4CC[C@@]5(C)[C@H](CC[C@@H]6[C@@H]5C[C@@H](O)[C@]5(C)[C@@H](C7=CC(=O)OC7)CC[C@]65O)C4)O[C@@H]3C)O[C@@H]2C)C[C@H](O)[C@@H]1O [digoxin]
time until mice reached humane endpoint euthanasia criteria: significantly longer than mice in the control groups

From US20220072324A1, “METHOD AND SYSTEM FOR APPLYING PULSED ELECTRIC FIELDS WITH HIGH […] MAGNETIC CORES” (Board of Supervisors of Louisiana State University and …, priority 2018, published 2022)
